Results as given in US11993785B2, “Immersion deposition methods and compositions for use in the same” (Wake Forest University Health Sciences, priority 2018, dated 2024).

System: primary sarcoma organoids
Experiment: CELLTITER-GLO 3D ATP assay of drug treated primary sarcoma organoids
Type: cell-based
Details: 3 days, after 7 days organoid culture
Description: The organoids were made using an immersion printing technique using a gelatin composition having a gelatin concentration of 10 mg/mL. To prepare the gelatin composition, gelatin was allowed to completely dissolve, and then the composition was cooled at 4° C. prior to use. The organoids were printed with a new bioprinter, BIO X™ available from CELLINK®, using a new type of printhead, a syringe pump printhead.
The resulting organoids were cultured for 7 days, and then subjected to various drug conditions in culture for 3 more days. Table 1 details the drug and concentration added to the standard culture media (high glucose DMEM supplemented with 10% fetal bovine serum, 1% L-glutamine, 1% penicillin/streptomycin). The organoids were then measured for viability using the CELLTITER-GLO® 3D ATP assay to measure ATP content via luminescence. The resulting signals, shown in FIG. 5, show a trend of organoid viability decreasing as drug concentration increased. Live/dead imaging corroborates the findings of the ATP assay.

Row | SMILES | AVG Signal (lum), ATP assay (1 nM drug in culture media) [lum] | AVG Signal (lum), ATP assay (100 nM drug in culture media) [lum] | AVG Signal (lum), ATP assay (10 μM drug in culture media) [lum] | AVG Signal (lum), ATP assay (5 μM drug in culture media) [lum] | AVG Signal (lum), ATP assay (50 μM drug in culture media) [lum] | AVG Signal (lum), ATP assay (500 μM drug in culture media) [lum]
1 | COc1cccc2c1C(=O)c1c(O)c3c(c(O)c1C2=O)C[C@@](O)(C(=O)CO)C[C@@H]3O[C@H]1C[C@H](N)[C@H](O)[C@H](C)O1 [Doxorubicin] | 5.13E+06 | 2.62E+06 | 1.12E+06 |  |  | 
2 | Cc1ccc(NC(=O)c2ccc(CN3CCN(C)CC3)cc2)cc1Nc1nccc(-c2cccnc2)n1 [Imatinib] |  |  |  | 9.16E+06 | 6.56E+06 | 1.88E+04
